Reference: US20060024844A1, “Method for the idenification of ligands” (priority 2002, published 2006)
Read-outs that look alike come from different tables or passages of the source. One block for each compound: values may come before it.

Tests used:
Type in all cases: binding
ER-β = ER-β (Homo sapiens, UniProt Q92731); test: Microplate thermal shift assay (Thermofluor) of ER-β with ligands and co-regulators; details: for Change in Tm stabilization from the receptor-ligand ΔTm in the presence of SRC-1 NR2 / Change in Tm stabilization from the receptor-ligand ΔTm in the presence of SRC-3 NR2 / Change in Tm stabilization from the receptor-ligand ΔTm in the presence of SRC-3 / Change in Tm stabilization from the receptor-ligand ΔTm in the presence of NCoR1 / Observed ΔTm stabilization, ligand alone / ΔTm at 11 µM: ER-β 8 μM, ligand 20 μM; for Change in Tm stabilization from the receptor-ligand ΔTm in the presence of SRC-1 NR2: co-activator peptide SRC1—NR2; for Change in Tm stabilization from the receptor-ligand ΔTm in the presence of SRC-3 NR2: co-activator peptide SRC3—NR2; for Change in Tm stabilization from the receptor-ligand ΔTm in the presence of SRC-3 / ΔTm at 11 µM: co-activator protein SRC-3 11 μM; for Change in Tm stabilization from the receptor-ligand ΔTm in the presence of NCoR1: co-repressor peptide NCoR-1; for Observed ΔTm stabilization, ligand alone: no co-regulator, average of four experiments; for ΔTm at 11 µM: read-out: Change in Tm stabilization from the receptor-ligand ΔTm in the presence of SRC-3
Description: (§1) A 2 μL ligand solution at 2 times the final concentration was dispensed with a micropipette into a 384 well black wall Greiner plate. Then, 2 μL of the protein dye solution was dispensed on top of the ligand solution in the 384 well plate. The plates were spun to ensure mixing of the protein-dye and ligand solutions followed by layering of 1 μL of silicone oil to prevent evaporation during heating of the samples.

ER-α [1] = molecular target: T1, ER-α (Homo sapiens, UniProt P03372); test: Microplate thermal shift assay (Thermofluor) of ER-α with ligands and co-regulators
T1 sequence (P03372 1-595): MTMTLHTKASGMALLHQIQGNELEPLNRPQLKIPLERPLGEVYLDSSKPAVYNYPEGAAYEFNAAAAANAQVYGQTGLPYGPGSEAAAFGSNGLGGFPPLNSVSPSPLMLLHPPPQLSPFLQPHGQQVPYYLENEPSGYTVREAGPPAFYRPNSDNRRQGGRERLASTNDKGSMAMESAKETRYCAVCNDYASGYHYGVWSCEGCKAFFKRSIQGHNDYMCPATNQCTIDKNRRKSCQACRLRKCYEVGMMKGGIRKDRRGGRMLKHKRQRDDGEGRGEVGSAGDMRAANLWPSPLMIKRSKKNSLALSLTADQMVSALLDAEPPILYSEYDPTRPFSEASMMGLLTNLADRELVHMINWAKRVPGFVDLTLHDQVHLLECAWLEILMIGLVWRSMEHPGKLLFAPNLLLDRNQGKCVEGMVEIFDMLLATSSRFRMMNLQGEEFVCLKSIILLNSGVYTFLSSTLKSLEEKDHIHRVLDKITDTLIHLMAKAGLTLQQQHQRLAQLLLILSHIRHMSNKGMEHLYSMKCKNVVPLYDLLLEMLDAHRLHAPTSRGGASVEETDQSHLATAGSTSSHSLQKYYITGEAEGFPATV
Description: as §1

ER-α [2] = molecular target: T1, ER-α; test: Microplate thermal shift assay (Thermofluor) of ER-α against a panel of steroid ligands
Description: The concentration of ER-α in all of the experiments was 8 μM and the ligand concentration was 20 μM.
A 2 μL ligand solution at 2 times the final concentration was dispensed with a micropipette into a 384 well black wall Greiner plate. Then, 2 μL of the protein dye solution was dispensed on top of the ligand solution in the 384 well plate. The plates were spun to ensure mixing of the protein-dye and ligand solutions followed by layering of […], of silicone oil to prevent evaporation during heating of the samples.

[3] = ER-α 8 μM, ligand 20 μM, average of four experiments, in °C (unit assumed)
[4] = ER-α 8 μM, ligand 20 μM, average of four experiments

ER-β, sequence (Q92731 whole entry, species assumed): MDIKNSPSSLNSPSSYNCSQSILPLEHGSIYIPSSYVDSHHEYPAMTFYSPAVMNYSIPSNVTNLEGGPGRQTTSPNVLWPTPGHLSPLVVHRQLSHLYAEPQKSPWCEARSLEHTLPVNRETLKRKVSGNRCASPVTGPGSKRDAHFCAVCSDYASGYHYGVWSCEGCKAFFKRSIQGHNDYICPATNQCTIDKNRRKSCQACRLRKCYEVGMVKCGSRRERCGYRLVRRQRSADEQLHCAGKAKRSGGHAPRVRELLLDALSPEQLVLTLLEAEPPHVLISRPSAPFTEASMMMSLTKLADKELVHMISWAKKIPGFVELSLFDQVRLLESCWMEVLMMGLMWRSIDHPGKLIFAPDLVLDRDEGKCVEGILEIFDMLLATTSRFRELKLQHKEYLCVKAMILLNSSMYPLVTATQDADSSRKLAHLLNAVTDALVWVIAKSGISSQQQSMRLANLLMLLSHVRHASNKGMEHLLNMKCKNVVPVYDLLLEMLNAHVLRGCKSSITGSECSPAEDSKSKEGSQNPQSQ

ΔTm (ER-α [2]; [4]): −0.27
Compound: C[C@]12C[C@H](O)[C@H]3[C@@H](CCC4=CC(=O)CC[C@@]43C)[C@@H]1CC[C@@H]2C(=O)CO [corticosterone]

ΔTm at 11 µM (ER-β): 1.1 °C
Compound: C[C@]12CC[C@@H]3c4ccc(O)cc4CC[C@H]3[C@@H]1CC[C@@H]2O [Estradiol, β-estradiol]

ΔTm at 11 µM (ER-β): 0.6 °C
Observed ΔTm stabilization, ligand alone (ER-β): 13.6
Additional stabilization / ability to recruit co-activators in the presence of co-activator protein/peptide (ER-β; ER-β, result in words): no ability to recruit co-activators
ΔTm at 11 µM (ER-α [1]; ER-α 8 μM, ligand 20 μM, co-activator protein SRC-3 11 μM, read-out: Change in Tm stabilization from the receptor-ligand ΔTm in the presence of SRC-3): 0 °C
Additional stabilization / ability to recruit co-activators in the presence of co-activator protein/peptide (ER-α [1]; ER-α, result in words): no ability to recruit co-activators
Compound: C[C@]12CC[C@@H]3c4ccc(O)cc4C[C@@H](CCCCCCCCC[S+]([O-])CCCC(F)(F)C(F)(F)F)[C@H]3[C@@H]1CC[C@@H]2O (stereo partly shown) [ICI-182780]

Preferential recruitment of co-activator, ER-α vs. ER-β (ER-α [1]; in the presence of estrogen-like ligands, result in words): preferentially recruited
Compound: SRC-3: co-activator protein SRC-3
Observed ΔTm stabilization by co-regulator alone (no ligand) (ER-α [1]; ER-α 8 μM, no ligand, SRC-3 11 μM, peptides 100 XM): 0.5 °C

Continued, compound first:

Compound: COc1cc2c(cc1O)CC[C@@H]1[C@@H]2CC[C@]2(C)[C@@H](O)CC[C@@H]12 [2-methoxy-E2, 2-methoxyestradiol]
Change in Tm stabilization from the receptor-ligand ΔTm in the presence of SRC-1 NR2 (ER-β): 4.4
Change in Tm stabilization from the receptor-ligand ΔTm in the presence of SRC-3 NR2 (ER-β): 4.4
Change in Tm stabilization from the receptor-ligand ΔTm in the presence of SRC-3 (ER-β): 2.2
Change in Tm stabilization from the receptor-ligand ΔTm in the presence of NCoR1 (ER-β): −0.7
Observed ΔTm stabilization, ligand alone (ER-β): 1.5
Change in Tm stabilization from the receptor-ligand ΔTm in the presence of NCoR1 (ER-α [1]; ER-α 8 μM, ligand 20 μM, co-repressor peptide NCoR-1): −0.3
Observed ΔTm stabilization, ligand alone (ER-α [1]; ER-α 8 μM, ligand 20 μM, no co-regulator, average of four experiments): 1.8
ΔTm (ER-α [2]; [3]): 5.98
Ligand function for ER-α (agonist or antagonist) (ER-α [2]; interpretation if ligands had been screened against co-regulators as in Example 1): agonists

Compound: C[C@]12CCC(=O)C=C1CC[C@@H]1[C@@H]2C(=O)C[C@@]2(C)[C@H]1CC[C@]2(O)C(=O)CO [cortisone]
ΔTm (ER-α [2]; [3]): 0.01

Compound: 17-α-ethyleneestradiol [17-α-ethylen-E2]
Change in Tm stabilization from the receptor-ligand ΔTm in the presence of SRC-1 NR2 (ER-β): 2.6
Change in Tm stabilization from the receptor-ligand ΔTm in the presence of SRC-3 NR2 (ER-β): 2.6
Change in Tm stabilization from the receptor-ligand ΔTm in the presence of SRC-3 (ER-β): 1.6
Change in Tm stabilization from the receptor-ligand ΔTm in the presence of NCoR1 (ER-β): −0.1
Observed ΔTm stabilization, ligand alone (ER-β): 15.0

Compound: 4-hydroxytamoxifen [4-OH-tamoxifen]
Ligand function for ER-α (agonist or antagonist) (ER-α [2]): antagonist
ΔTm (ER-α [2]; in °C (unit assumed)): 19.99

Compound: C[C@@]12CCC[C@H]1[C@@H]1CCC3=CCCC[C@]3(C)[C@H]1CC2 [4-androstene]
ΔTm (ER-α [2]; [4]): −0.23

Compound: CC(=O)[C@H]1CC[C@H]2[C@@H]3CCC4=CC(=O)CC[C@]4(C)[C@H]3CC[C@]12C [progesterone]
ΔTm (ER-α [2]; [4]): −0.19
